Measurements as given in publication PMC6379670, “An ultra-high affinity ligand of HIV-1 TAR reveals the RNA structure recognized by P-TEFb” (Nucleic Acids Research, 2018).
Read-outs that look alike come from different tables or passages of the source. Non-standard residues stand in square brackets, D forms with d. Residues, ends and D or L forms follow the SMILES beside them. hArg = N=C(N)NCCCC[C@H](N)C(=O)O

Assays:
JB181 (synthetic) = assay: EMSA
HIV-1 TAR RNA = type: binding; settings: EMSA, positional scanning library, Table S1
Method: (§1) Electro Mobility Shift Assays (EMSA) and 2-aminopurine fluorescence ([35]) were used to measure peptide binding. For EMSA, all RNAs were 5′-dephosphorylated ([25],[26]) and 5′-rephosphorylated using T4 Polynucleotide Kinase (PNK); shifts were performed and analyzed as previously described ([14]). The P-TEFb/Tat1:57/AFF4 binding assays were run as described ([11]), with protein samples generously donated by Drs Ursula Schulze-Gahmen and James Hurley, but binding buffers contained 250× fold excess yeast tRNA. JB181-bound samples were prepared with 3× excess labeled HIV-TAR prior to titration with the pre-formed P-TEFb/Tat1:57/AFF4 complex.
(§2) Fig. S1. a) HIV-1 TAR, BIV TAR and 7SK-SL4 RNAs have similar secondary structures, but the JB181 peptide discriminates between them. […]
(§3) tightly than BIV TAR (3.3 nM) or 7SK (>3 μM) RNAs. b) EMSA of representative JB-peptides with 32P radiolabeled HIV-1 TAR RNA ([RNA]=75pM). The peptide concentration increases from left to right, as indicated. The dissociation constant can be estimated by the peptide concentration where there is an approximate 1:1 ratio (as established by visual inspection) between free RNA and complex, since the RNA concentration is much lower than the KD.
(§4) (1 picture or pasted object on this page, not shown here)

BIV TAR RNA = assay: EMSA binding to BIV TAR; settings: positional scanning library, Table S1
Method: as §1, §2, §3, §4

[1] = with tRNA, read-out: Kd (nM) w/tRNA
[2] = without tRNA, read-out: Kd (nM) no tRNA

| Molecule | Kd (JB181 (synthetic); EMSA: 32P RNA (75-100 pM), 250-fold excess tRNA, buffer as in cited work (not given), 2-AP fluorescence: 100 fM RNA, NMR: 10 mM K phosphate pH 6.5, 10 mM NaCl …) [nM] | Kd (HIV-1 TAR RNA; [1]) [nM] | Kd (HIV-1 TAR RNA; [2]) [nM] | Kd (BIV TAR RNA) [nM] | Kd (JB181 (synthetic)) [nM] |
| --- | --- | --- | --- | --- | --- |
| 7SK-SL4 | > 3000 | – | – | – | – |
| CC[C@H](C)[C@@H]1NC(=O)[C@H](CCCNC(=N)N)NC(=O)[C@H](CCCNC(=N)N)NC(=O)CNC(=O)[C@H](CCCCN)NC(=O)[C@H](CCCNC(=N)N)NC(=O)[C@H]([C@@H](C)O)NC(=O)[C@H](CCCNC(=N)N)NC(=O)[C@H](C(C)C)NC(=O)[C@H](CCCCN)NC(=O)[C@@H]2CCCN2C(=O)[C@H]2CCCN2C(=O)[C@H]([C@@H](C)CC)NC(=O)[C@H](CCCNC(=N)N)NC1=O [JB-60] (cyclo(KVRTRKGRRIRI[dP]P)) | – | 300 | 3 | > 5000 | – |
| CC[C@H](C)[C@@H]1NC(=O)[C@H](CCCNC(=N)N)NC(=O)[C@H](CCCNC(=N)N)NC(=O)CNC(=O)[C@H](CCCCN)NC(=O)[C@H](CCCNC(=N)N)NC(=O)[C@H]([C@@H](C)O)NC(=O)[C@H](CCCNC(=N)N)NC(=O)[C@H](Cc2ccc(O)cc2)NC(=O)[C@H](CCCNC(=N)N)NC(=O)[C@@H]2CCCN2C(=O)[C@H]2CCCN2C(=O)[C@H]([C@@H](C)CC)NC(=O)[C@H](CCCNC(=N)N)NC1=O [JB-62] (cyclo(RYRTRKGRRIRI[dP]P)) | – | 150 | 1 to 5 | 10 | – |
| CC[C@H](C)[C@@H]1NC(=O)[C@H](CCCNC(=N)N)NC(=O)[C@H](CCCNC(=N)N)NC(=O)CNC(=O)[C@H](CCCCN)NC(=O)[C@H](CCCNC(=N)N)NC(=O)[C@H]([C@@H](C)O)NC(=O)[C@H](CCCNC(=N)N)NC(=O)[C@H](CC(N)=O)NC(=O)[C@H](CCCNC(=N)N)NC(=O)[C@@H]2CCCN2C(=O)[C@H]2CCCN2C(=O)[C@H]([C@@H](C)CC)NC(=O)[C@H](CCCNC(=N)N)NC1=O [JB-63] (cyclo(RNRTRKGRRIRI[dP]P)) | – | 100 | 1 | < 1 | – |
| CC[C@H](C)[C@@H]1NC(=O)[C@H](CCCNC(=N)N)NC(=O)[C@H](CCCNC(=N)N)NC(=O)CNC(=O)[C@H](CCCCN)NC(=O)[C@H](CCCNC(=N)N)NC(=O)[C@H]([C@@H](C)O)NC(=O)[C@H](CCCNC(=N)N)NC(=O)[C@H]([C@@H](C)O)NC(=O)[C@H](CCCNC(=N)N)NC(=O)[C@@H]2CCCN2C(=O)[C@H]2CCCN2C(=O)[C@H]([C@@H](C)CC)NC(=O)[C@H](CCCNC(=N)N)NC1=O [JB-65] (cyclo(RTRTRKGRRIRI[dP]P)) | – | 50 | 1 | < 1 | – |
| CC[C@H](C)[C@@H]1NC(=O)[C@H](CCCNC(=N)N)NC(=O)[C@H](CCCNC(=N)N)NC(=O)CNC(=O)[C@H](CCCCN)NC(=O)[C@H](CCCNC(=N)N)NC(=O)[C@H]([C@@H](C)O)NC(=O)[C@H](CCCNC(=N)N)NC(=O)[C@H](C)NC(=O)[C@H](CCCNC(=N)N)NC(=O)[C@@H]2CCCN2C(=O)[C@H]2CCCN2C(=O)[C@H]([C@@H](C)CC)NC(=O)[C@H](CCCNC(=N)N)NC1=O [JB-66] (cyclo(RARTRKGRRIRI[dP]P)) | – | 100 | 1 | 1 | – |
| CC[C@H](C)[C@@H]1NC(=O)[C@H](CCCNC(=N)N)NC(=O)[C@H](C)NC(=O)[C@H](CCCNC(=N)N)NC(=O)[C@H](CCCNC(=N)N)NC(=O)CNC(=O)[C@H](CCCCN)NC(=O)[C@H](CCCNC(=N)N)NC(=O)[C@H]([C@@H](C)O)NC(=O)[C@H](CCCNC(=N)N)NC(=O)[C@H](C(C)C)NC(=O)[C@H](CCCNC(=N)N)NC(=O)[C@@H]2CCCN2C(=O)[C@H]2CCCN2C1=O [JB-75] (cyclo(RVRTRKGRRARI[dP]P)) | – | 300 | 5 | 1 to 5 | – |
| CC[C@H](C)[C@@H]1NC(=O)[C@H](CCCNC(=N)N)NC(=O)[C@H](C(C)C)NC(=O)[C@H](CCCNC(=N)N)NC(=O)[C@H](CCCNC(=N)N)NC(=O)CNC(=O)[C@H](CCCCN)NC(=O)[C@H](CCCNC(=N)N)NC(=O)[C@H]([C@@H](C)O)NC(=O)[C@H](CCCNC(=N)N)NC(=O)[C@H](C(C)C)NC(=O)[C@H](CCCNC(=N)N)NC(=O)[C@@H]2CCCN2C(=O)[C@H]2CCCN2C1=O [JB-76] (cyclo(RVRTRKGRRVRI[dP]P)) | – | < 50 | 1 | 1 | – |
| CC[C@H](C)[C@@H]1NC(=O)[C@H](CCCNC(=N)N)NC(=O)[C@H](CCCNC(=N)N)NC(=O)CNC(=O)[C@H](CCCCN)NC(=O)[C@H](CCCNC(=N)N)NC(=O)[C@H]([C@@H](C)O)NC(=O)[C@H](CCCNC(=N)N)NC(=O)[C@H](C(C)C)NC(=O)[C@H](CCCNC(=N)N)NC(=O)[C@@H]2CCCN2C(=O)[C@H]2CCCN2C(=O)[C@H](C(C)C)NC(=O)[C@H](CCCNC(=N)N)NC1=O [JB-84] (cyclo(RVRTRKGRRIRV[dP]P)) | – | 50 | 1 | 1 | – |
| CC[C@H](C)[C@@H]1NC(=O)[C@H](CCCNC(=N)N)NC(=O)[C@H](CCCNC(=N)N)NC(=O)CNC(=O)[C@H](CCCCN)NC(=O)[C@H](CCCNC(=N)N)NC(=O)[C@H]([C@@H](C)O)NC(=O)[C@H](CCCNC(=N)N)NC(=O)[C@H](C(C)C)NC(=O)[C@H](CCCNC(=N)N)NC(=O)[C@@H]2CCCN2C(=O)[C@H]2CCCN2C(=O)[C@H](CC(C)C)NC(=O)[C@H](CCCNC(=N)N)NC1=O [JB-85] (cyclo(RVRTRKGRRIRL[dP]P)) | – | 50 | 5 | 1 | – |
| CC[C@H](C)[C@@H]1NC(=O)[C@H](CCCNC(=N)N)NC(=O)[C@H](CCCNC(=N)N)NC(=O)CNC(=O)[C@H](CCCCN)NC(=O)[C@H](CCCNC(=N)N)NC(=O)[C@H]([C@@H](C)O)NC(=O)[C@H](CCCCNC(=N)N)NC(=O)[C@H](C(C)C)NC(=O)[C@H](CCCNC(=N)N)NC(=O)[C@@H]2CCCN2C(=O)[C@H]2CCCN2C(=O)[C@H]([C@@H](C)CC)NC(=O)[C@H](CCCNC(=N)N)NC1=O [KP-Y-02] (cyclo(RV[hArg]TRKGRRIRI[dP]P)) | – | 200 | – | – | – |
| CC[C@H](C)[C@@H]1NC(=O)[C@H](CCCNC(=N)N)NC(=O)[C@H](CCCNC(=N)N)NC(=O)CNC(=O)[C@H](CCCCN)NC(=O)[C@H](CCCCNC(=N)N)NC(=O)[C@H]([C@@H](C)O)NC(=O)[C@H](CCCNC(=N)N)NC(=O)[C@H](C(C)C)NC(=O)[C@H](CCCNC(=N)N)NC(=O)[C@@H]2CCCN2C(=O)[C@H]2CCCN2C(=O)[C@H]([C@@H](C)CC)NC(=O)[C@H](CCCNC(=N)N)NC1=O [KP-Y-03] (cyclo(RVRT[hArg]KGRRIRI[dP]P)) | – | 200 | – | – | – |
| CC[C@H](C)[C@@H]1NC(=O)[C@H](CCCNC(=N)N)NC(=O)[C@H](CCCCNC(=N)N)NC(=O)CNC(=O)[C@H](CCCCN)NC(=O)[C@H](CCCNC(=N)N)NC(=O)[C@H]([C@@H](C)O)NC(=O)[C@H](CCCNC(=N)N)NC(=O)[C@H](C(C)C)NC(=O)[C@H](CCCNC(=N)N)NC(=O)[C@@H]2CCCN2C(=O)[C@H]2CCCN2C(=O)[C@H]([C@@H](C)CC)NC(=O)[C@H](CCCNC(=N)N)NC1=O [KP-Y-04] (cyclo(RVRTRKG[hArg]RIRI[dP]P)) | – | 75 | – | – | – |
| CC[C@H](C)[C@@H]1NC(=O)[C@H](CCCCNC(=N)N)NC(=O)[C@H](CCCNC(=N)N)NC(=O)CNC(=O)[C@H](CCCCN)NC(=O)[C@H](CCCNC(=N)N)NC(=O)[C@H]([C@@H](C)O)NC(=O)[C@H](CCCNC(=N)N)NC(=O)[C@H](C(C)C)NC(=O)[C@H](CCCNC(=N)N)NC(=O)[C@@H]2CCCN2C(=O)[C@H]2CCCN2C(=O)[C@H]([C@@H](C)CC)NC(=O)[C@H](CCCNC(=N)N)NC1=O [KP-Y-05] (cyclo(RVRTRKGR[hArg]IRI[dP]P)) | – | 100 | – | – | – |
| GGCUCGUGUAGCUCAUUAGCUCCGAGCC [BIV TAR] | – | – | – | – | 3.3 |
| HIV-1 TAR A35C | – | – | – | – | < 1.3 |
| HIV-1 TAR A35G, G28A | – | – | – | – | 11 |
| HIV-1 TAR A35G, G28C | – | – | – | – | 10 |
| HIV-1 TAR A35del | – | – | – | – | < 1.3 |
| HIV-1 TAR G32A, G36A | – | – | – | – | < 0.166 |
| HIV-1 TAR G33A, G34A, G21A | – | – | – | – | 70 |
| HIV-1 TAR U25C | – | – | – | – | 1 |
